Source: publication PMC6345968, “Structural basis for species-selective targeting of Hsp90 in a pathogenic fungus” (Nature Communications, 2019)

Key:
[1] = target: T1, Hsp90 in C. albicans (SC5314) lysate (Candida albicans, UniProt P46598); assay: biochemical; set-up: species or system C. albicans SC5314 or HEPG2 lysate; Fluorescence polarization competition, displacement of Cy3B-geldanamycin probe from Hsp90 in whole-cell lysate
T1 construct: endogenous in cells; host or cells: C. albicans SC5314 whole-cell lysate
Procedure: To monitor relative Hsp90-binding affinities, we again used an FP-based competition approach in whole-cell lysates. […] The compounds were prepared using standard conditions with commercially available alkoxyamines varying in size and substitution (Fig. 3c and Supplementary Methods).

[2] = E/Z oxime isomerization in DMSO-d6; format: physicochemical
Text: stability studies of enriched batches of compound 5 in DMSO-d6 indicated slow isomerization in favor of the E-isomer over time. No evidence of hydrolyzed radicicol was obse rved in these […]
Starting Sample Timepoint % E isomer % Z
While we chromatographically obtained isomer-enriched samples of some oxime mixtures, experiments employing these enriched samples are confounded by the use of DMSO as vehicle (due to the slow equilibration). All attempts to ascertain differences in Hsp90 inhibitory activity among the enriched samples have thus far been ambiguous, with roughly equipotent activities observed across the enriched samples. Because of these observations, combined with our inability resolve the exact oxime stereochemistry crystallographically at the obtainable resolution (one isomer was arbitrarily modeled into the structure, while the other also fits the experimental […]

T1 sequence (P46598 whole entry): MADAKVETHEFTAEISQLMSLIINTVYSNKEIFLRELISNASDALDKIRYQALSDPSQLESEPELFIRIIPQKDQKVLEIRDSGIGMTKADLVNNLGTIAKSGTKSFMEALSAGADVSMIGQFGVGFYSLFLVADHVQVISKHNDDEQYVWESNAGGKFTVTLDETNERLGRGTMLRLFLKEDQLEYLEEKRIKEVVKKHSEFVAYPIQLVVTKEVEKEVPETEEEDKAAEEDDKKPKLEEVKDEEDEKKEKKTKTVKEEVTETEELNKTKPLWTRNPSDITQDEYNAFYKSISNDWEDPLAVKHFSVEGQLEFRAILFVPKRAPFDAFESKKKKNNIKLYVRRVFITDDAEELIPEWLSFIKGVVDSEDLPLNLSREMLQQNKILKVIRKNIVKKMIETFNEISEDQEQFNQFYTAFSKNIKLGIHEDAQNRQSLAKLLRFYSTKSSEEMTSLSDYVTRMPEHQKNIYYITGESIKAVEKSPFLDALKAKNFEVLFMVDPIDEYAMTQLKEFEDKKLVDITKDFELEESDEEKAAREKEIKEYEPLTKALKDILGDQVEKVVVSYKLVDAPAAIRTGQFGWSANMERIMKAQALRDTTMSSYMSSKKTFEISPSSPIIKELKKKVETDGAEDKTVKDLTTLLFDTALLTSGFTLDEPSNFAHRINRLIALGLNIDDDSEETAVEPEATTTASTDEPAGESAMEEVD

COc1ccc(CON=C2/C=C/C=C\[C@H]3O[C@H]3C[C@@H](C)OC(=O)c3c(O)cc(O)c(Cl)c3C2)cc1 [compound 5, (1aR,2Z,4E,14R,15aS)-8-chloro-9,11-dihydroxy-6-(((4-methoxybenzyl)oxy)imino)-14-methyl-1a,6,7,14,15,15a-hexahydro-12H-benzo[c]oxireno[2,3-k][1]oxacyclotetradecin-12-one]
EC50 [1]: 1350 nM

C[C@@H]1C[C@@H]2O[C@@H]2/C=C\C=C\C(=NOCc2cccc(F)c2)Cc2c(Cl)c(O)cc(O)c2C(=O)O1 [compound 6, (1aR,2Z,4E,14R,15aS)-8-chloro-6-(((3-fluorobenzyl)oxy)imino)-9,11-dihydroxy-14-methyl-1a,6,7,14,15,15a-hexahydro-12H-benzo[c]oxireno[2,3-k][1]oxacyclotetradecin-12-one]
EC50 [1]: 417 nM

COc1ccc(CON=C2/C=C/C=C\[C@H]3O[C@H]3C[C@@H](C)OC(=O)c3c(O)cc(O)c(Cl)c3C2)cc1 [compound 5]
% E isomer ([2]; DMSO-d6, Day 0, E-enriched): 58% | % Z isomer ([2]; DMSO-d6, Day 0, E-enriched): 42% | % E isomer ([2]; DMSO-d6, Day 0, Z-enriched): 35% | % Z isomer ([2]; DMSO-d6, Day 0, Z-enriched): 65% | % E isomer ([2]; DMSO-d6, Day 16, E-enriched): 85% | % Z isomer ([2]; DMSO-d6, Day 16, E-enriched): 15% | % E isomer ([2]; DMSO-d6, Day 16, Z-enriched): 67% | % Z isomer ([2]; DMSO-d6, Day 16, Z-enriched): 33%

Cc1ccc(CON=C2/C=C/C=C\[C@H]3O[C@H]3C[C@@H](C)OC(=O)c3c(O)cc(O)c(Cl)c3C2)cc1 [compound 3, (1aR,2Z,4E,14R,15aS)-8-chloro-9,11-dihydroxy-14-methyl-6-(((4-methylbenzyl)oxy)imino)-1a,6,7,14,15,15a-hexahydro-12H-benzo[c]oxireno[2,3-k][1]oxacyclotetradecin-12-one]
EC50 [1]: 972 nM

COc1ccccc1CON=C1/C=C/C=C\[C@H]2O[C@H]2C[C@@H](C)OC(=O)c2c(O)cc(O)c(Cl)c2C1 [compound 7, (1aR,2Z,4E,14R,15aS)-8-chloro-9,11-dihydroxy-6-(((2-methoxybenzyl)oxy)imino)-14-methyl-1a,6,7,14,15,15a-hexahydro-12H-benzo[c]oxireno[2,3-k][1]oxacyclotetradecin-12-one]
EC50 [1]: 360 nM

CCON=C1/C=C/C=C\[C@H]2O[C@H]2C[C@@H](C)OC(=O)c2c(O)cc(O)c(Cl)c2C1 [compound 8, (1aR,2Z,4E,14R,15aS)-8-chloro-6-(ethoxyimino)-9,11-dihydroxy-14-methyl-1a,6,7,14,15,15a-hexahydro-12H-benzo[c]oxireno[2,3-k][1]oxacyclotetradecin-12-one]
EC50 [1]: 5 nM
